Measurements reported in US20240124444A1 (Celgene Corporation, priority 2020, published 2024).

Test system: C. parvum strain UGA1
Assay: C. parvum growth inhibition assay (Nluc luminescence in HCT-8 cells)
Type: cell-based, Cryptosporidium parvum
Conditions: Cryptosporidium parvum, HCT-8; for inhibition at 1 µM: single point inhibition at 1 uM, read-out: % inh @ 1 uM C. parvum; for inhibition at 10 µM: single point inhibition at 10 uM, read-out: % inh @ 10 uM C. parvum

SMILES: COc1cc(-c2cc3cnc(NC(=O)c4cnn(C)c4)cc3[nH]2)ccn1 [Example 286, N-(2-(2-methoxypyridin-4-yl)-1H-pyrrolo[3,2-c]pyridin-6-yl)-1-methyl-1H-pyrazole-4-carboxamide]
- inhibition at 1 µM: 0 to 33%
- inhibition at 10 µM: 0 to 33%

SMILES: Cn1cc(C(=O)Nc2cc3[nH]c(-c4ccnc(C(F)(F)F)n4)cc3cn2)cn1 [Example 287, 1-methyl-N-(2-(2-(trifluoromethyl)pyrimidin-4-yl)-1H-pyrrolo[3,2-c]pyridin-6-yl)-1H-pyrazole-4-carboxamide]
- inhibition at 1 µM: 0 to 33%
- inhibition at 10 µM: 0 to 33%

SMILES: Cc1cc(-c2cc3cnc(NC(=O)c4cccc5c4cnn5C)cc3[nH]2)ccn1 [Example 288, 1-methyl-N-(2-(2-methylpyridin-4-yl)-1H-pyrrolo[3,2-c]pyridin-6-yl)-1H-indazole-4-carboxamide]
- inhibition at 1 µM: 0 to 33%
- inhibition at 10 µM: 0 to 33%

SMILES: Cc1cc(-c2cc3cnc(NC(=O)c4cccc5[nH]ncc45)cc3[nH]2)ccn1 [Example 289, N-(2-(2-methylpyridin-4-yl)-1H-pyrrolo[3,2-c]pyridin-6-yl)-1H-indazole-4-carboxamide]
- inhibition at 1 µM: 0 to 33%
- inhibition at 10 µM: 0 to 33%

SMILES: Cc1cc(-c2cc3cnc(NC(=O)c4ncoc4C)cc3[nH]2)ccn1 [Example 290, 5-methyl-N-(2-(2-methylpyridin-4-yl)-1H-pyrrolo[3,2-c]pyridin-6-yl)oxazole-4-carboxamide]
- inhibition at 1 µM: 0 to 33%
- inhibition at 10 µM: 0 to 33%

SMILES: Cc1cc(-c2cc3cnc(NC(=O)N(C)C)cc3[nH]2)ccn1 [Example 291, 1,1-dimethyl-3-(2-(2-methylpyridin-4-yl)-1H-pyrrolo[3,2-c]pyridin-6-yl)urea]
- inhibition at 1 µM: 0 to 33%
- inhibition at 10 µM: 0 to 33%

SMILES: COc1nccc(-c2cc3cnc(NC(=O)c4cc(C)n(C)n4)cc3[nH]2)n1 [Example 292, N-(2-(2-methoxypyrimidin-4-yl)-1H-pyrrolo[3,2-c]pyridin-6-yl)-1,5-dimethyl-1H-pyrazole-3-carboxamide]
- inhibition at 1 µM: 0 to 33%
- inhibition at 10 µM: 0 to 33%

SMILES: CCOc1nccc(-c2cc3cnc(NC(=O)c4cnn(C)c4)cc3[nH]2)n1 [Example 293, N-(2-(2-ethoxypyrimidin-4-yl)-1H-pyrrolo[3,2-c]pyridin-6-yl)-1-methyl-1H-pyrazole-4-carboxamide]
- inhibition at 1 µM: 0 to 33%
- inhibition at 10 µM: 0 to 33%

SMILES: Cc1cc(-c2cc3cnc(NC(=O)c4cc(C(F)(F)F)n(C)n4)cc3[nH]2)ccn1 [Example 294, 1-methyl-N-(2-(2-methylpyridin-4-yl)-1H-pyrrolo[3,2-c]pyridin-6-yl)-5-(trifluoromethyl)-1H-pyrazole-3-carboxamide]
- inhibition at 1 µM: 0 to 33%
- inhibition at 10 µM: 0 to 33%

SMILES: COCCOc1ccc(C(=O)Nc2cc3[nH]c(-c4ccnc(C)c4)cc3cn2)cc1OC [Example 295, 3-methoxy-4-(2-methoxyethoxy)-N-(2-(2-methylpyridin-4-yl)-1H-pyrrolo[3,2-c]pyridin-6-yl)benzamide]
- inhibition at 1 µM: 0 to 33%
- inhibition at 10 µM: 0 to 33%

SMILES: COc1ccc(C(=O)Nc2cc3[nH]c(-c4ccnc(C)c4)cc3cn2)cc1OC [Example 296, 3,4-dimethoxy-N-(2-(2-methylpyridin-4-yl)-1H-pyrrolo[3,2-c]pyridin-6-yl)benzamide]
- inhibition at 1 µM: 0 to 33%
- inhibition at 10 µM: 0 to 33%

SMILES: COc1nccc(-c2cc3cnc(NC(=O)C(C)(C)C)cc3[nH]2)n1 [Example 297, N-(2-(2-methoxypyrimidin-4-yl)-1H-pyrrolo[3,2-c]pyridin-6-yl)pivalamide]
- inhibition at 1 µM: 0 to 33%
- inhibition at 10 µM: 0 to 33%

SMILES: Cc1cc(-c2cc3cnc(NC(=O)C45CC(C4)C5)cc3[nH]2)ccn1 [Example 298, N-(2-(2-methylpyridin-4-yl)-1H-pyrrolo[3,2-c]pyridin-6-yl)bicyclo[1.1.1]pentane-1-carboxamide]
- inhibition at 1 µM: 0 to 33%
- inhibition at 10 µM: 0 to 33%

SMILES: Cn1cc(C(=O)Nc2cc3[nH]c(-c4cc(C(F)(F)F)ccn4)cc3cn2)cn1 [Example 299, 1-methyl-N-(2-(4-(trifluoromethyl)pyridin-2-yl)-1H-pyrrolo[3,2-c]pyridin-6-yl)-1H-pyrazole-4-carboxamide]
- inhibition at 1 µM: 0 to 33%
- inhibition at 10 µM: 0 to 33%

SMILES: Cn1cc(C(=O)Nc2cc3[nH]c(-c4cc(C#N)ccn4)cc3cn2)cn1 [Example 300, N-(2-(4-cyanopyridin-2-yl)-1H-pyrrolo[3,2-c]pyridin-6-yl)-1-methyl-1H-pyrazole-4-carboxamide]
- inhibition at 1 µM: 0 to 33%
- inhibition at 10 µM: 0 to 33%

SMILES: Cc1cc(-c2cc3cnc(NC(=O)C(C)(C)C)cc3[nH]2)ccn1 [Example 301, N-(2-(2-methylpyridin-4-yl)-1H-pyrrolo[3,2-c]pyridin-6-yl)pivalamide]
- inhibition at 1 µM: 0 to 33%
- inhibition at 10 µM: 0 to 33%

SMILES: Cn1c(-c2ccnc(C(F)(F)F)n2)cc2cnc(NC(=O)C3CC3)cc21 [Example 302, N-(1-methyl-2-(2-(trifluoromethyl)pyrimidin-4-yl)-1H-pyrrolo[3,2-c]pyridin-6-yl)cyclopropanecarboxamide]
- inhibition at 1 µM: 0 to 33%
- inhibition at 10 µM: 0 to 33%

SMILES: Cn1cc(C(=O)Nc2cc3[nH]c(-c4cnc(C#N)cn4)cc3cn2)cn1 [Example 303, N-(2-(5-cyanopyrazin-2-yl)-1H-pyrrolo[3,2-c]pyridin-6-yl)-1-methyl-1H-pyrazole-4-carboxamide]
- inhibition at 1 µM: 0 to 33%
- inhibition at 10 µM: 0 to 33%

SMILES: Cn1cc(C(=O)Nc2cc3[nH]c(-c4cnc(C(F)(F)F)cn4)cc3cn2)cn1 [Example 304, 1-methyl-N-(2-(5-(trifluoromethyl)pyrazin-2-yl)-1H-pyrrolo[3,2-c]pyridin-6-yl)-1H-pyrazole-4-carboxamide]
- inhibition at 1 µM: 33 to 66%
- inhibition at 10 µM: 0 to 33%

SMILES: Cc1cc(C(=O)Nc2cc3[nH]c(-c4ccnc(NCC(F)(F)F)c4)cc3cn2)nn1C [Example 305, 1,5-dimethyl-N-(2-(2-(2,2,2-trifluoroethylamino)pyridin-4-yl)-1H-pyrrolo[3,2-c]pyridin-6-yl)-1H-pyrazole-3-carboxamide]
- inhibition at 1 µM: 0 to 33%
- inhibition at 10 µM: 0 to 33%

SMILES: Cn1cc(C(=O)Nc2cc3[nH]c(-c4ccc(C(F)(F)F)nc4)cc3cn2)cn1 [Example 306, 1-methyl-N-(2-(6-(trifluoromethyl)pyridin-3-yl)-1H-pyrrolo[3,2-c]pyridin-6-yl)-1H-pyrazole-4-carboxamide]
- inhibition at 1 µM: 0 to 33%
- inhibition at 10 µM: 0 to 33%

SMILES: Cn1cc(C(=O)Nc2cc3[nH]c(-c4ccnc(OCC(F)(F)F)n4)cc3cn2)cn1 [Example 308, 1-methyl-N-(2-(2-(2,2,2-trifluoroethoxy)pyrimidin-4-yl)-1H-pyrrolo[3,2-c]pyridin-6-yl)-1H-pyrazole-4-carboxamide]
- inhibition at 1 µM: 0 to 33%
- inhibition at 10 µM: 0 to 33%

SMILES: COc1nccc(-c2cc3cnc(NC(=O)c4cnn(C(C)C)c4)cc3n2C)n1 [Example 309, 1-isopropyl-N-(2-(2-methoxypyrimidin-4-yl)-1-methyl-1H-pyrrolo[3,2-c]pyridin-6-yl)-1H-pyrazole-4-carboxamide]
- inhibition at 1 µM: 0 to 33%
- inhibition at 10 µM: 0 to 33%

SMILES: Cn1cc(C(=O)Nc2cc3[nH]c(-c4ccnc(OCC(F)F)n4)cc3cn2)cn1 [Example 310, N-(2-(2-(2,2-difluoroethoxy)pyrimidin-4-yl)-1H-pyrrolo[3,2-c]pyridin-6-yl)-1-methyl-1H-pyrazole-4-carboxamide]
- inhibition at 1 µM: 0 to 33%
- inhibition at 10 µM: 0 to 33%

SMILES: CC(C)COc1nccc(-c2cc3cnc(NC(=O)c4cnn(C)c4)cc3[nH]2)n1 [Example 311, N-(2-(2-isobutoxypyrimidin-4-yl)-1H-pyrrolo[3,2-c]pyridin-6-yl)-1-methyl-1H-pyrazole-4-carboxamide]
- inhibition at 1 µM: 0 to 33%
- inhibition at 10 µM: 0 to 33%

SMILES: CCCOc1nccc(-c2cc3cnc(NC(=O)c4cnn(C)c4)cc3[nH]2)n1 [Example 312, 1-methyl-N-(2-(2-propoxypyrimidin-4-yl)-1H-pyrrolo[3,2-c]pyridin-6-yl)-1H-pyrazole-4-carboxamide]
- inhibition at 1 µM: 0 to 33%
- inhibition at 10 µM: 0 to 33%

SMILES: Cn1cc(C(=O)Nc2cc3[nH]c(-c4ccnc(OCC5CCC5)n4)cc3cn2)cn1 [Example 313, N-(2-(2-(cyclobutylmethoxy)pyrimidin-4-yl)-1H-pyrrolo[3,2-c]pyridin-6-yl)-1-methyl-1H-pyrazole-4-carboxamide]
- inhibition at 1 µM: 0 to 33%
- inhibition at 10 µM: 0 to 33%

SMILES: COc1nc(C)cc(-c2cc3cnc(NC(=O)c4cnn(C)c4)cc3[nH]2)n1 [Example 315, N-(2-(2-methoxy-6-methylpyrimidin-4-yl)-1H-pyrrolo[3,2-c]pyridin-6-yl)-1-methyl-1H-pyrazole-4-carboxamide]
- inhibition at 1 µM: 0 to 33%
- inhibition at 10 µM: 0 to 33%

SMILES: CCOc1nccc(-c2cc3cnc(NC(=O)c4cnn(C)c4)cc3n2CC(C)C)n1 [Example 316, N-(2-(2-ethoxypyrimidin-4-yl)-1-isobutyl-1H-pyrrolo[3,2-c]pyridin-6-yl)-1-methyl-1H-pyrazole-4-carboxamide]
- inhibition at 1 µM: 0 to 33%
- inhibition at 10 µM: 0 to 33%

SMILES: Cc1nn(C)cc1C(=O)Nc1cc2[nH]c(-c3ccnc(OCC(F)F)n3)cc2cn1 [Example 317, N-(2-(2-(2,2-difluoroethoxy)pyrimidin-4-yl)-1H-pyrrolo[3,2-c]pyridin-6-yl)-1,3-dimethyl-1H-pyrazole-4-carboxamide]
- inhibition at 1 µM: 0 to 33%
- inhibition at 10 µM: 0 to 33%

SMILES: CCn1cc(C(=O)Nc2cc3[nH]c(-c4ccnc(OCC(F)F)n4)cc3cn2)c(C)n1 [Example 318]
- inhibition at 1 µM: 0 to 33%
- inhibition at 10 µM: 0 to 33%

SMILES: Cn1cc(C(=O)Nc2cc3[nH]c(-c4ccnc(OCC(C)(C)C)n4)cc3cn2)cn1 [Example 319, 1-methyl-N-(2-(2-(neopentyloxy)pyrimidin-4-yl)-1H-pyrrolo[3,2-c]pyridin-6-yl)-1H-pyrazole-4-carboxamide]
- inhibition at 1 µM: 0 to 33%
- inhibition at 10 µM: 0 to 33%

SMILES: COc1nccc(-c2cc3cnc(NC(=O)c4ccc(N5CCOCC5)cc4)cc3[nH]2)n1 [Example 320, N-(2-(2-methoxypyrimidin-4-yl)-1H-pyrrolo[3,2-c]pyridin-6-yl)-4-morpholinobenzamide]
- inhibition at 1 µM: 0 to 33%
- inhibition at 10 µM: 0 to 33%
